In paper PMC7774954, “Interactomic affinity profiling by holdup assay: Acetylation and distal residues impact the PDZome-binding specificity of PTEN phosphatase” (PLoS ONE, 2020):
*1 amine or outer side, *2 acyl side, *3 side chain or, on linkers, in order; H or OH if unused. Where a SMILES comes first, the peptide text is derived from it. The star is where a group is joined. X1 = O=C(CCCC[C@@H]1SC[C@@H]2NC(=O)N[C@@H]21)NCCCOCCOCCOCCCN*; Suc = O=C(CCC(=O)[*:2])[*:1]

Columns and labels:
[1] = system: GRIP1-7; assay: Holdup assay, GRIP1-7; assay type: binding, human
[2] = system: INADL-1; assay: Holdup assay, INADL-1; assay type: binding, human
[3] = target: T1, MAGI3-6 (Homo sapiens, UniProt Q5TCQ9); assay: Holdup assay, MAGI3-6; assay type: binding
T1 sequence (Q5TCQ9 1-1481): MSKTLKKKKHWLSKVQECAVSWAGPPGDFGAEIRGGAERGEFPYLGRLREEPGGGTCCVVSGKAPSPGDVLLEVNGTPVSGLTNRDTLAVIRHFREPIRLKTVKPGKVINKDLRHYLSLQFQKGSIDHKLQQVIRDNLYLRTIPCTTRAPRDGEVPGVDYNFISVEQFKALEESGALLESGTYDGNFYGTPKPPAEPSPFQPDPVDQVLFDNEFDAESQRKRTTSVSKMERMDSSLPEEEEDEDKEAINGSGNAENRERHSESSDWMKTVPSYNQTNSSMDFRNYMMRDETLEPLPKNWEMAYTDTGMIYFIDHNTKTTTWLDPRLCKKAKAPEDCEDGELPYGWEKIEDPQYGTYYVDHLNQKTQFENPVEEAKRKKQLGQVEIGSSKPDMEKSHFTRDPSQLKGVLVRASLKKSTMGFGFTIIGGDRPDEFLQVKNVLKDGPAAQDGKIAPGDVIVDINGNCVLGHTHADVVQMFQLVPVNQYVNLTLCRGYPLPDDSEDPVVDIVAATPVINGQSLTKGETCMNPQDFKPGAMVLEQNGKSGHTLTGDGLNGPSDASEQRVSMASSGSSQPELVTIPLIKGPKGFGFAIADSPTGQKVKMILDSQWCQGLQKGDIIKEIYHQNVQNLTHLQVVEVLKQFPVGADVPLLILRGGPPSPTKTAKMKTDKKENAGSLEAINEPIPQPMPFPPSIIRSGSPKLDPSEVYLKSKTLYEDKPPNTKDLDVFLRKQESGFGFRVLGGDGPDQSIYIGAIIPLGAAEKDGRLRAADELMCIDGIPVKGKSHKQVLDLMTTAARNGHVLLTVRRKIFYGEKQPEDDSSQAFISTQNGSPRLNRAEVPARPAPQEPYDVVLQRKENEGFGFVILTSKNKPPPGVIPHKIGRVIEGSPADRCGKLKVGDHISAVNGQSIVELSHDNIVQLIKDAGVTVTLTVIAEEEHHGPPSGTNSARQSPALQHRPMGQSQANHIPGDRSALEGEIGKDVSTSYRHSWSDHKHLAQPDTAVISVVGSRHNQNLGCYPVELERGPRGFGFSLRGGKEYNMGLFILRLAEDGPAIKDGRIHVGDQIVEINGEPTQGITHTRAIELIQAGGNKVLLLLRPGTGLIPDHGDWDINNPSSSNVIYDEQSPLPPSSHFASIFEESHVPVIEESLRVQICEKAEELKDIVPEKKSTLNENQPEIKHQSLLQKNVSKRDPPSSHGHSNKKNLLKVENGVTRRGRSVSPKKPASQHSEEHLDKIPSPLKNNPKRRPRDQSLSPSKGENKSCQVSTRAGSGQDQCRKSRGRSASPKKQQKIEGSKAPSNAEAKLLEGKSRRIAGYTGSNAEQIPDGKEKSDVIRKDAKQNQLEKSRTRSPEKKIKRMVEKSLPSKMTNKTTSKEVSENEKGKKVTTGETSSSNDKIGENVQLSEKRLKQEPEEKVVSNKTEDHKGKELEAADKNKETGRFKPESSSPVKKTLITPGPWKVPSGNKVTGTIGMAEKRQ

[4] = system: GRIP2-3; assay: Holdup assay, GRIP2-3; assay type: binding, human
[5] = system: LNX2-3; assay: Holdup assay, LNX2-3; assay type: binding, human
[6] = system: INADL-9; assay: Holdup assay, INADL-9; assay type: binding, human
[7] = target: T2, SDCBP PDZ 1 (Homo sapiens, UniProt O00560); assay: Holdup assay, SDCBP-1; assay type: binding; details: PDZ domain SDCBP-1
T2 construct: made in house; host or cells: E. coli
T2 sequence (O00560 114-193 limits assumed): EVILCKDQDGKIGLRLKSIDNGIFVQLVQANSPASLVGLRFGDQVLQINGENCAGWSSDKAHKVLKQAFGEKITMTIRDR
Description: The holdup assay was performed on a Tecan freedom Evo200 robot with 384-well plates in singlicate for the three 11-mer PTEN variants and the 13-mer PTEN peptide as described in [31, 32]. Briefly, prior to interaction assay, 2.5 μL of streptavidin resin was saturated in each well with 20 μL of biotinylated PBM peptides (42 μM) and then washed twice with an excess of free biotin, while the reference resin was incubated only with biotin. Right before the holdup experiment, the PDZ library was spiked with an internal standard of lysozyme. Then, the biotin- or PBM-saturated resin was incubated, each in a distinct well of a 384-well plate, with complete cell lysates diluted so that the concentration of the tag-PDZ present in the crude extract is adjusted at 4 μM. After a sufficient time to reach complex equilibrium (15 min.), a fast and mild filtration step is performed and the tag-PDZ concentrations were measured by capillary electrophoresis instrument (LabChip GXII, PerkinElmer, Massachusets, USA). Standard markers were used to convert migration time into molecular weight on the LabChip software and inappropriate molecular weight markers were corrected or excluded.
For filtered data, the BI was extracted with the following equation (Eq 1) that estimates the depleted fraction after superimposition of the sample and reference electropherograms: BI=Iref−Ilig/Iref (1) where Iref and Ilig are the intensities of the tag-PDZ peaks measured, for each PDZ domain/PBM peptide interaction pair, in the biotin reference and the PBM electropherograms, respectively.
BIs were transformed into dissociation constants (KD) using the following formula: KD=([PDZtot]−BI·[PDZtot])·([PBMtot]−BI·[PDZtot])/BI·[PDZtot] (2) where [PDZtot] and [PBMtot] correspond to the total concentrations of the PDZ domain (usually around 4 μM) and the PBM peptide used during the assay. Since the PBMtot concentration in the resin during the holdup assay parameter may differ from one peptide to another and remains unknown, it is impossible to directly convert BI values into KD constants. We systematically determined the KD constants for a subset of PDZ/PBM pairs by competitive FP. […] For each PBM, the average peptide concentration was calculated after outlier rejection based on the absolute distances from the median as compared to three times the standard deviation (3σ rule), with never more than 2 values rejected.

[8] = target: GRASP-1 (Homo sapiens, UniProt Q7Z6J2); assay: Holdup assay, GRASP-1; assay type: binding; details: for BI: GRASP-1
Chain of GRASP-1 (Q7Z6J2 100-189): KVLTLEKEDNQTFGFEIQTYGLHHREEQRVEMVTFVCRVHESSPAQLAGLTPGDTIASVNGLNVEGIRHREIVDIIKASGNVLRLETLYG

[9] = system: GRIP1-2; assay: Holdup assay, GRIP1-2; assay type: binding, human
[10] = system: GRID2IP-1; assay: Holdup assay, GRID2IP-1; assay type: binding, human

## CC[C@H](C)[C@H](NC(=O)[C@H](CCC(N)=O)NC(=O)[C@@H](NC(=O)[C@H](Cc1c[nH]cn1)NC(=O)[C@H](CCC(N)=O)NC(=O)[C@H](CC(=O)O)NC(=O)[C@H](CCC(=O)O)NC(=O)[C@H](CC(=O)O)NC(=O)CCC(=O)NCCCOCCOCCOCCCNC(=O)CCCC[C@@H]1SC[C@@H]2NC(=O)N[C@@H]21)[C@@H](C)O)C(=O)N[C@H](C(=O)N[C@@H](CCCCN)C(=O)N[C@H](C(=O)O)C(C)C)[C@@H](C)O [PTEN_11]
[1]
  BI: -0.03
  LogKD: 3.519
[2]
  BI: 0.022
  LogKD: 3.519
[3]
  BI: 0.071
  LogKD: 3.519
[4]
  BI: 0.054
  LogKD: 3.519
[5]
  BI: -0.164
  LogKD: 3.519
[6]
  BI: 0.014
  LogKD: 3.519
[7]
  BI: -0.001
[8]
  Kd: 33.1 µM
  BI: 0.492
[9]
  BI: 0.006
  LogKD: 3.519
[10]
  BI: -0.012
  LogKD: 3.519

## CC[C@H](C)[C@H](NC(=O)[C@H](CCC(N)=O)NC(=O)[C@@H](NC(=O)[C@H](Cc1c[nH]cn1)NC(=O)[C@H](CCC(N)=O)NC(=O)[C@H](CC(=O)O)NC(=O)[C@H](CCC(=O)O)NC(=O)[C@H](CC(=O)O)NC(=O)[C@H](Cc1ccccc1)NC(=O)[C@@H]1CCCN1C(=O)CCC(=O)NCCCOCCOCCOCCCNC(=O)CCCC[C@@H]1SC[C@@H]2NC(=O)N[C@@H]21)[C@@H](C)O)C(=O)N[C@H](C(=O)N[C@@H](CCCCN)C(=O)N[C@H](C(=O)O)C(C)C)[C@@H](C)O [PTEN_13] ({X1-Suc}-PFDEDQHTQITKV-OH)
[1]
  BI: 0.015
[2]
  BI: 0.086
[3]
  BI: 0.044
  LogKD: 3.826
[4]
  BI: 0.027
[5]
  BI: -0.083
[6]
  BI: -0.062
[7]
  BI: 0.009
[8]
  Kd: 12.4 µM
  BI: 0.544
[9]
  BI: 0.009
[10]
  BI: 0.044

## CC[C@H](C)[C@H](NC(=O)[C@H](CCC(N)=O)NC(=O)[C@@H](NC(=O)[C@H](Cc1c[nH]cn1)NC(=O)[C@H](CCC(N)=O)NC(=O)[C@H](CC(=O)O)NC(=O)[C@H](CCC(=O)O)NC(=O)[C@H](CC(=O)O)NC(=O)CCC(=O)NCCCOCCOCCOCCCNC(=O)CCCC[C@@H]1SC[C@@H]2NC(=O)N[C@@H]21)[C@@H](C)O)C(=O)N[C@H](C(=O)N[C@@H](CCCCNC(C)=O)C(=O)N[C@H](C(=O)O)C(C)C)[C@@H](C)O [PTEN_Ac]
[1]
  BI: -0.071
  LogKD: 3.605
[2]
  BI: 0.004
  LogKD: 3.605
[3]
  BI: 0.251
  Kd: 80.6 µM
[4]
  BI: 0.055
  LogKD: 3.605
[6]
  BI: 0.072
  LogKD: 3.605
[7]
  BI: -0.057
[8]
  Kd: 8.02 µM
  BI: 0.757
[9]
  BI: -0.02
  LogKD: 3.605
[10]
  BI: -0.067
  LogKD: 3.605

## CC[C@H](C)[C@H](NC(=O)[C@H](CCC(N)=O)NC(=O)[C@@H](NC(=O)[C@H](Cc1c[nH]cn1)NC(=O)[C@H](CCC(N)=O)NC(=O)[C@H](CC(=O)O)NC(=O)[C@H](CCC(=O)O)NC(=O)[C@H](CC(=O)O)NC(=O)CCC(=O)NCCCOCCOCCOCCCNC(=O)CCCC[C@@H]1SC[C@@H]2NC(=O)N[C@@H]21)[C@@H](C)O)C(=O)N[C@H](C(=O)N[C@@H](CCCNC(=N)N)C(=O)N[C@H](C(=O)O)C(C)C)[C@@H](C)O [PTEN_KR] ({X1-Suc}-DEDQHTQITRV-OH)
[1]
  BI: -0.06
  LogKD: 3.655
[2]
  BI: 0.058
  LogKD: 3.655
[3]
  BI: 0.067
  LogKD: 3.655
[4]
  BI: 0.027
  LogKD: 3.655
[5]
  BI: 0.021
  LogKD: 3.655
[6]
  BI: 0.068
  LogKD: 3.655
[7]
  BI: -0.006
[8]
  Kd: 16.8 µM
  BI: 0.575
[9]
  BI: -0.06
  LogKD: 3.655
[10]
  BI: -0.033
  LogKD: 3.655
